Laboratory results published in patent publication US20240383901A1, “SUBSTITUTED PYRROLO[2,3-D]PYRIMIDINES, THEIR PREPARATION AND THEIR THERAPEUTIC APPLICATION” (SANOFI, priority 2021, published 2024).

Target: LRRK2 (Homo sapiens, UniProt Q5S007)
Assay: LRRK2 WT assay (Assay B, radiometric 33P-ATP filter binding)
Type: biochemical
Conditions: Assay B (values marked *)
Method: LRRK2(human) is incubated with 50 mM HEPES pH 8.0, 0.2 mM EDTA, 0.01% Brij-35, 1% (w/v) BSA, 5 mM DTT, 250 Mm […], 10 mM Magnesium acetate and [[…]]-ATP (specific activity and concentration as required).
The reaction is initiated by the addition of the Mg/ATP mix.

Sequence of LRRK2 (Q5S007 whole entry): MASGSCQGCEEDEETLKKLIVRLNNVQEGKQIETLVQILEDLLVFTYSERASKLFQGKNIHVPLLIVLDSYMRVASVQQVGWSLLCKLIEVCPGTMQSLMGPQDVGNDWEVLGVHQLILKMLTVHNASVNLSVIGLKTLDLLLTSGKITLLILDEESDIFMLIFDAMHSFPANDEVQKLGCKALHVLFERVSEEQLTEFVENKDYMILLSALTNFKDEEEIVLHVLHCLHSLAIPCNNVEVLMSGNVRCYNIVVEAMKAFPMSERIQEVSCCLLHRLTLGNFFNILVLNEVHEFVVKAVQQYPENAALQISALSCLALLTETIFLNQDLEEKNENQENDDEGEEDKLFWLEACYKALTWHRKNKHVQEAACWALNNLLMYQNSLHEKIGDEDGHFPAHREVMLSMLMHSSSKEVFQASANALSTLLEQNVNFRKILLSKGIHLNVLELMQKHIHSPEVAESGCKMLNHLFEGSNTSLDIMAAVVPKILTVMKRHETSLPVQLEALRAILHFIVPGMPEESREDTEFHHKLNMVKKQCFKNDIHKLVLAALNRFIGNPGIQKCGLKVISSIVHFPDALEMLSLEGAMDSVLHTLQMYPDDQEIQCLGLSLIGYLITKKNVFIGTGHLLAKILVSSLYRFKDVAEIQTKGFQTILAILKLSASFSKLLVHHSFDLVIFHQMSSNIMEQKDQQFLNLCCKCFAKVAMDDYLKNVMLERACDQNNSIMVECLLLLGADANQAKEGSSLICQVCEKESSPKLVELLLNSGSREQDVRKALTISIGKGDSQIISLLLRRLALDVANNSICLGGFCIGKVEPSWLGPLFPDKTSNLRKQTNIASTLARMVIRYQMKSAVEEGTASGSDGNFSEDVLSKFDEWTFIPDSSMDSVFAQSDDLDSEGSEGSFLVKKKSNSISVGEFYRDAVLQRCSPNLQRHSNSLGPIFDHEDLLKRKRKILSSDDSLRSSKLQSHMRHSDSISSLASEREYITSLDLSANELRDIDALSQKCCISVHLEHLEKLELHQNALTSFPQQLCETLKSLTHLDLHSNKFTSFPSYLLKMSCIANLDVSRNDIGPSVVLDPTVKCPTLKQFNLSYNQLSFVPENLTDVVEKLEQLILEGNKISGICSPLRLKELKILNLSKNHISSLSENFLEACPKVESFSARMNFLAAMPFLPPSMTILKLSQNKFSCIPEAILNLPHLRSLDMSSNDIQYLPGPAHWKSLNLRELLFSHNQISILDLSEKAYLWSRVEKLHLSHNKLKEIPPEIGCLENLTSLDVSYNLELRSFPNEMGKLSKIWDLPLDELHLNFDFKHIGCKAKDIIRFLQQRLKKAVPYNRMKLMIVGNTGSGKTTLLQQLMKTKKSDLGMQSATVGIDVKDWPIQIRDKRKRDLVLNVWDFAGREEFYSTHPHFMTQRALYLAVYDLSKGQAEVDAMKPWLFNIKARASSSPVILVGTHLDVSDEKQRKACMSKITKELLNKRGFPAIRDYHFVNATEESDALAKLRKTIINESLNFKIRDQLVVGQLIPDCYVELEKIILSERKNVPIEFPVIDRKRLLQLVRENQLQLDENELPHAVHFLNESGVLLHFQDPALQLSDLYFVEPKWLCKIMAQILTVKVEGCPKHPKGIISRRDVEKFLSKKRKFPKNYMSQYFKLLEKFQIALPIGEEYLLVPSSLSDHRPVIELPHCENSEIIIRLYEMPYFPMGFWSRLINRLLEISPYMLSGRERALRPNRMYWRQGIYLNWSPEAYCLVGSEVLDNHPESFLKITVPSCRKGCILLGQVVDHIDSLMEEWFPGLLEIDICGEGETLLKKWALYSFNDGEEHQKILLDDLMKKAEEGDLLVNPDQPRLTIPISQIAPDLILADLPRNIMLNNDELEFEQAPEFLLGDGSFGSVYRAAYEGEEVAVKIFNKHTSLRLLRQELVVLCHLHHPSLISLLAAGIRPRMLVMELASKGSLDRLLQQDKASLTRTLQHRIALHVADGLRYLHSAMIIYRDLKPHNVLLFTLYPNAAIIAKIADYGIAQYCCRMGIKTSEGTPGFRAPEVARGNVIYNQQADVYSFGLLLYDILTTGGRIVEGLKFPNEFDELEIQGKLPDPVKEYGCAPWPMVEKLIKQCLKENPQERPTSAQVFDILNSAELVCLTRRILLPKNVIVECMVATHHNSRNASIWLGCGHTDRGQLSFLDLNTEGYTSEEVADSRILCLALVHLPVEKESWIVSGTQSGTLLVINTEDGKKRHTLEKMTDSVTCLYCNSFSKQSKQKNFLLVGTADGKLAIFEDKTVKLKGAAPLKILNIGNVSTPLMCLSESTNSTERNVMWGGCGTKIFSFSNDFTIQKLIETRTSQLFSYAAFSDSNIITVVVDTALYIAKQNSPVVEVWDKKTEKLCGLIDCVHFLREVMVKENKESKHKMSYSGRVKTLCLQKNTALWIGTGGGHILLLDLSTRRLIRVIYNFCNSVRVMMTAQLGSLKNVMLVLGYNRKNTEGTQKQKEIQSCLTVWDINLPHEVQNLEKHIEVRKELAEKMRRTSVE

Row | Structure (SMILES) | IC50
1 | C[C@@H]1COCC[C@H]1n1c(C#N)cc2cnc(Nc3cn(C)nc3OC3COC3)nc21 (single isomer, unassigned) [Example 83, 2-((1-methyl-3-(oxetan-3-yloxy)-1 H-pyrazol-4-yl)amino)-7-((trans)-3-methyltetrahydro-2H-pyran-4-yl)-7H-pyrrolo[2,3-d]pyrimidine-6-carbonitrile] | 134 nM
2 | C[C@@H]1COCC[C@H]1n1c(C#N)cc2cnc(Nc3cn(C)nc3OC3COC3)nc21 (single isomer, unassigned) [Example 84, 2-((1-methyl-3-(oxetan-3-yloxy)-1 H-pyrazol-4-yl)amino)-7-((trans)-3-methyltetrahydro-2H-pyran-4-yl)-7H-pyrrolo[2,3-d]pyrimidine-6-carbonitrile] | 7 nM
3 | CC1COCCC1n1c(C#N)cc2cnc(Nc3cn(C)nc3OC3COC3)nc21 (single isomer, unassigned) [Example 85, ((1-methyl-3-(oxetan-3-yloxy)-1 H-pyrazol-4-yl)amino)-7-((cis)-3-methyltetrahydro-2H-pyran-4-yl)-7H-pyrrolo[2,3-d]pyrimidine-6-carbonitrile] | 41 nM
4 | CC1COCCC1n1c(C#N)cc2cnc(Nc3cn(C)nc3OC3COC3)nc21 (single isomer, unassigned) [Example 86, ((1-methyl-3-(oxetan-3-yloxy)-1 H-pyrazol-4-yl)amino)-7-((cis)-3-methyltetrahydro-2H-pyran-4-yl)-7H-pyrrolo[2,3-d]pyrimidine-6-carbonitrile] | 435 nM
5 | CO[C@H]1COC[C@H]1n1c(C#N)cc2cnc(Nc3cn(C(C)C#N)nc3OC3CC3)nc21 (stereo partly drawn) [Example 58, 2-((1-(1-Cyanoethyl)-3-cyclopropoxy-1H-pyrazol-4-yl)amino)-7-((3R,4R)-4-methoxytetrahydrofuran-3-yl)-7H-pyrrolo[2,3-d]pyrimidine-6-carbonitrile] | 15 nM
6 | CO[C@H]1COC[C@H]1n1c(C#N)cc2cnc(Nc3cn(C(C)(C)C#N)nc3OC3CC3)nc21 [Example 59, 2-((1-(2-Cyanopropan-2-yl)-3-cyclopropoxy-1H-pyrazol-4-yl)amino)-7-((3R,4R)-4-methoxytetrahydrofuran-3-yl)-7H-pyrrolo[2,3-d]pyrimidine-6-carbonitrile] | 31 nM
7 | CO[C@H]1COC[C@H]1n1c(C#N)cc2cnc(Nc3cn(C(C)(C)C#N)nc3OC(C)C)nc21 [Example 60, 2-((1-(2-Cyanopropan-2-yl)-3-isopropoxy-1H-pyrazol-4-yl)amino)-7-((3R,4R)-4-methoxytetrahydrofuran-3-yl)-7H-pyrrolo[2,3-d]pyrimidine-6-carbonitrile] | 42 nM
8 | CO[C@H]1COC[C@H]1n1c(C#N)cc2cnc(Nc3cn(C(C)C)nc3OC3CC3)nc21 [Example 61, 2-((3-Cyclopropoxy-1-isopropyl-1H-pyrazol-4-yl)amino)-7-((3R,4R)-4-methoxytetrahydrofuran-3-yl)-7H-pyrrolo[2,3-d]pyrimidine-6-carbonitrile] | 133 nM
9 | CO[C@H]1COC[C@H]1n1c(C#N)cc2cnc(Nc3cn(C)nc3OC(C)C)nc21 [Example 62, 2-((3-Isopropoxy-1-methyl-1H-pyrazol-4-yl)amino)-7-((3R,4R)-4-methoxytetrahydrofuran-3-yl)-7H-pyrrolo[2,3-d]pyrimidine-6-carbonitrile] | 114 nM
10 | CO[C@H]1COC[C@H]1n1c(C#N)cc2cnc(Nc3cn(C4COC4)nc3OC(C)C)nc21 [Example 63, 2-((3-Isopropoxy-1-(oxetan-3-yl)-1H-pyrazol-4-yl)amino)-7-((3R,4R)-4-methoxytetrahydrofuran-3-yl)-7H-pyrrolo[2,3-d]pyrimidine-6-carbonitrile] | 201 nM
11 | CO[C@H]1COC[C@H]1n1c(C#N)cc2cnc(Nc3cn(C4COC4)nc3OC3CC3)nc21 [Example 64, 2-((3-Cyclopropoxy-1-(oxetan-3-yl)-1H-pyrazol-4-yl)amino)-7-((3R,4R)-4-methoxytetrahydrofuran-3-yl)-7H-pyrrolo[2,3-d]pyrimidine-6-carbonitrile] | 135 nM
12 | CO[C@H]1COC[C@H]1n1c(C#N)cc2cnc(Nc3cn(C)nc3OC3CC(F)(F)C3)nc21 [Example 65, 2-((3-(3,3-Difluorocyclobutoxy)-1-methyl-1H-pyrazol-4-yl)amino)-7-((3R,4R)-4-methoxytetrahydrofuran-3-yl)-7H-pyrrolo[2,3-d]pyrimidine-6-carbonitrile] | 187 nM
13 | CC[C@@H](C)Oc1nn(C)cc1Nc1ncc2cc(C#N)n([C@@H]3COC[C@@H]3OC)c2n1 [Example 66, 2-((3-((R)-sec-Butoxy)-1-methyl-1H-pyrazol-4-yl)amino)-7-((3R,4R)-4-methoxytetrahydrofuran-3-yl)-7H-pyrrolo[2,3-d]pyrimidine-6-carbonitrile] | 119 nM
14 | CC[C@H](C)Oc1nn(C)cc1Nc1ncc2cc(C#N)n([C@@H]3COC[C@@H]3OC)c2n1 [Example 67, 2-((3-((S)-sec-Butoxy)-1-methyl-1H-pyrazol-4-yl)amino)-7-((3R,4R)-4-methoxytetrahydrofuran-3-yl)-7H-pyrrolo[2,3-d]pyrimidine-6-carbonitrile] | 297 nM
15 | CO[C@H]1COC[C@H]1n1c(C#N)cc2cnc(Nc3ccnc4c3OC(C)(C)CC4)nc21 [Example 68, 2-((2,2-Dimethyl-3,4-dihydro-2H-pyrano[3,2-b]pyridin-8-yl)amino)-7-((3R,4R)-4-methoxytetrahydrofuran-3-yl)-7H-pyrrolo[2,3-d]pyrimidine-6-carbonitrile] | > 1000 nM
16 | CO[C@H]1COC[C@H]1n1c(C#N)cc2cnc(Nc3ccnc4c3O[C@H](C)CCO4)nc21 [Example 69, 7-((3R,4R)-4-Methoxytetrahydrofuran-3-yl)-2-(((R)-2-methyl-3,4-dihydro-2H-[1,4]dioxepino[2,3-b]pyridin-9-yl)amino)-7H-pyrrolo[2,3-d]pyrimidine-6-carbonitrile] | 597 nM
17 | CC(C)Oc1nn(C)cc1Nc1ncc2cc(C#N)n(C3COC3)c2n1 [Example 75, 2-((3-Isopropoxy-1-methyl-1 H-pyrazol-4-yl)amino)-7-(oxetan-3-yl)-7H-pyrrolo[2,3-d]pyrimidine-6-carbonitrile] | 44 nM
18 | [2H]c1c(Nc2ncc3cc(C#N)n([C@H]4COC[C@@H]4C)c3n2)c(OC2COC2)nn1C [Example 94, 2-((1-Methyl-3-(oxetan-3-yloxy)-1 H-pyrazol-4-yl-5-d)amino)-7-((3R,4R)-4-methyltetrahydrofuran-3-yl)-7H-pyrrolo[2,3-d]pyrimidine-6-carbonitrile] | 7 nM
19 | [2H]c1c(Nc2ncc3cc(C#N)n([C@@H](C)COC)c3n2)c(OC2CC2)nn1COC [Example 95, (S)-2-((3-cyclopropoxy-1-(methoxymethyl)-1H-pyrazol-4-yl-5-d)amino)-7-(1-methoxypropan-2-yl)-7H-pyrrolo[2,3-d]pyrimidine-6-carbonitrile] | 16 nM
20 | [2H]c1c(Nc2ncc3cc(C#N)n([C@H]4COC[C@@H]4C)c3n2)c(OC2COC2C)nn1C (stereo partly drawn) [Example 97, 2-((1-methyl-3-((2-methyloxetan-3-yl)oxy)-1H-pyrazol-4-yl-5-d)amino)-7-((3R,4R)-4-methyltetrahydrofuran-3-yl)-7H-pyrrolo[2,3-d]pyrimidine-6-carbonitrile] | 12 nM
21 | [2H]c1c(Nc2ncc3cc(C#N)n([C@H]4COC[C@@H]4C)c3n2)c(OC2COC2)nn1C([2H])([2H])[2H] [Example 98, 2-((1-(methyl-d3)-3-(oxetan-3-yloxy)-1H-pyrazol-4-yl-5-d)amino)-7-((3R,4R)-4-methyltetrahydrofuran-3-yl)-7H-pyrrolo[2,3-d]pyrimidine-6-carbonitrile] | 12 nM
